# Source: article PMC9886975, “Ligand recognition mechanism of the human relaxin family peptide receptor 4 (RXFP4)” (Nature Communications, 2023)
# pEC50, pKi: −log10 of the molar value. Like-named read-outs stand apart in the source and are kept apart here.
# How the values were obtained:
# human RXFP4 = target: T1, human RXFP4 (Homo sapiens, UniProt Q8TDU9); assay: competitive Eu-R3/I5 binding, RXFP4
# T1 construct: expressed in transfected cells
# Method: CHO-K1 cells stably transfected with RXFP3 or RXFP4 were plated onto pre-coated poly-L-lysine 96-well plates. The competitive binding assays were performed with 5 nM Eu-H3 B1-22R (RXFP3) or Eu-R3/I5 (RXFP4) in the presence of increasing amounts of ligands as previously described[21],[86],[87]. Time-resolved fluorescence measurements were carried out at an excitation wavelength of 340 nm and an emission wavelength of 614 nm on a BMG POLARstar plate reader (BMG Labtech, Melbourne, Australia). Binding was performed in at least three independent experiments with triplicate determinations within each assay. Data are presented as means ± S.E.M. of specific binding and were fitted using a one-site binding curve in Prism software (GraphPad).
# All functional study data were analyzed using GraphPad Prism 8.3 (GraphPad Software) and presented as means ± S.E.M. from at least three independent experiments. Dose-response curves were evaluated with a three-parameter logistic equation. The significance was determined with either a two-tailed Student’s t-test or one-way ANOVA with Dunnett’s multiple comparison test, and P < 0.05 was considered statistically significant.
# RXFP4 W279A = target: T2, RXFP4 W279A (Homo sapiens, UniProt Q8TDU9, W279A); assay: cAMP accumulation, RXFP4 W279A; format: cell-based
# T2 construct: RXFP4(1-374)-; expressed in transfected cells; host or cells: HEK293T, transient (pCMV6)
# Text: (§1) The full-length human RXFP4 (NCBI Reference Sequence: NM_181885.3) was cloned into a modified pFastBac vector (Invitrogen) with HA signal peptide to enhance receptor expression, followed by a 10× histidine tag and BRIL insertion at the N terminus. LgBiT subunit (Promega) was fused at the C terminus of RXFP4 connected by a 15-amino acid polypeptide linker. […] The engineered human Gαi2, Gβ1, bovine Gγ2, and scFv16 were cloned into the pFastBac vector (Invitrogen), respectively. For cAMP accumulation assay, human RXFP4 and RXFP3 (NCBI Reference Sequence: NM_016568.3) were cloned into pCMV6 constructs (OriGene Technologies). […]
# (§2) CHO-K1 (ATCC, Cat#CCL-61) cells stably expressing human RXFP4 (hRXFP4-CHO) or RXFP3 (hRXFP3-CHO) were maintained in DMEM/F12 (Gibco) supplemented with 10% (v/v) fetal bovine serum (FBS) and 2 mM L-glutamine. […] Following 24 h culturing, the transfected cells were ready for detection.
# (§3) Ligands were verified for their bioactivity in the beginning in hRXFP4-CHO, which were ready for use after 24 h culturing. […] The time-resolved fluorescence resonance energy transfer (TR-FRET) signals were detected by an EnVision multilabel plate reader (PerkinElmer) with the emission window ratio of 665 nm over 620 nm under 320 nm excitation. […]
# RXFP4 L118A = target: T3, RXFP4 L118A (Homo sapiens, UniProt Q8TDU9, L118A); assay: cAMP accumulation, RXFP4 L118A; format: cell-based; details: HEK293T
# T3 construct: RXFP4(1-374)-; expressed in transfected cells; host or cells: HEK293T, transient (pCMV6)
# Text: as §1, §2, §3
# RXFP4 V122A = target: T4, RXFP4 V122A (Homo sapiens, UniProt Q8TDU9, V122A); assay: cAMP accumulation, RXFP4 V122A; format: cell-based; details: HEK293T, mean ± S.E.M.
# T4 construct: RXFP4(1-374)-; expressed in transfected cells; host or cells: HEK293T, transient (pCMV6)
# Text: as §1, §2, §3
# RXFP4 V122S = target: T5, RXFP4 V122S (Homo sapiens, UniProt Q8TDU9, V122S); assay: cAMP accumulation, RXFP4 V122S; format: cell-based; details: HEK293T, mean ± S.E.M.
# T5 construct: RXFP4(1-374)-; expressed in transfected cells; host or cells: HEK293T, transient (pCMV6)
# Text: as §1, §2, §3
# RXFP3 WT = target: T6, RXFP3 WT (Homo sapiens, UniProt Q9NSD7); assay: cAMP accumulation, WT RXFP3 (HEK293T); format: cell-based; details: WT and all the five RXFP3 mutants
# T6 construct: RXFP3(1-469)-; expressed in transfected cells; host or cells: HEK293T, transient (pCMV6)
# Text: as §1, §2, §3
# RXFP4 T121A = target: T7, RXFP4 T121A (Homo sapiens, UniProt Q8TDU9, T121A); assay: cAMP accumulation, RXFP4 T121A; format: cell-based; details: HEK293T
# T7 construct: RXFP4(1-374)-; expressed in transfected cells; host or cells: HEK293T, transient (pCMV6)
# Text: as §1, with “Technologies). The mutant receptors were modified by site-directed mutagenesis in the setting of the WT constructs, with the primers designed by QuikChange Primer Design [QuickChange Primer Design (http://agilent.com.cn)] and carried out using Phanta Max Master (Vazyme). N-terminal Flag tag was added to both WT and mutant receptors for surface expression measurement.” for “Technologies).”
# as §2, §3
# (§4) Inhibition of forskolin-induced cAMP accumulation was performed in HEK293T cells transiently transfected with WT and mutant receptors. All the mutant constructs were modified by single-point mutation in the setting of the WT receptor. cAMP accumulation data were analyzed using a three-parameter logistic equation to determine pEC50 and Emax values. Emax values for mutants are defined as the window between the maximal response and vehicle control (no ligand) and expressed as a percentage of the WT. […]
# RXFP4 R208A = target: T8, RXFP4 R208A (Homo sapiens, UniProt Q8TDU9, R208A); assay: cAMP accumulation, RXFP4 R208A; format: cell-based; details: HEK293T
# T8 construct: RXFP4(1-374)-; expressed in transfected cells; host or cells: HEK293T, transient (pCMV6)
# Text: as §1, with “Technologies). The mutant receptors were modified by site-directed mutagenesis in the setting of the WT constructs, with the primers designed by QuikChange Primer Design [QuickChange Primer Design (http://agilent.com.cn)] and carried out using Phanta Max Master (Vazyme). N-terminal Flag tag was added to both WT and mutant receptors for surface expression measurement.” for “Technologies).”
# as §2, §3, §4
# T7 sequence (Q8TDU9 whole entry T121A): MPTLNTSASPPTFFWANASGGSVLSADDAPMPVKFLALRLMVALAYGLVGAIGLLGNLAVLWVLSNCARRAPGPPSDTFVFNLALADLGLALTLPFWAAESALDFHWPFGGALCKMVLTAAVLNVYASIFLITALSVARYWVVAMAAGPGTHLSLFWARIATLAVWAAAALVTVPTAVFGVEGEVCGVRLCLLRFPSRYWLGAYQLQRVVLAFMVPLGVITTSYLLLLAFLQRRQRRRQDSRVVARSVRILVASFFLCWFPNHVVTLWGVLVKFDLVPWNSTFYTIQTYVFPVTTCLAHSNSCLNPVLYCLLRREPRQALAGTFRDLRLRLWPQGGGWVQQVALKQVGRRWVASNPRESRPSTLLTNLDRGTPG
# T8 sequence (Q8TDU9 whole entry R208A): as the sequence (Q8TDU9 whole entry T121A) above, with A121T, R208A counted along it
# T4 sequence (Q8TDU9 whole entry V122A): as the sequence (Q8TDU9 whole entry T121A) above, with A121T, V122A counted along it
# T1 sequence (Q8TDU9 whole entry): as the sequence (Q8TDU9 whole entry T121A) above, with A121T counted along it
# T5 sequence (Q8TDU9 whole entry V122S): as the sequence (Q8TDU9 whole entry T121A) above, with A121T, V122S counted along it
# T2 sequence (Q8TDU9 whole entry W279A): as the sequence (Q8TDU9 whole entry T121A) above, with A121T, W279A counted along it
# T3 sequence (Q8TDU9 whole entry L118A): as the sequence (Q8TDU9 whole entry T121A) above, with L118A, A121T counted along it
# T6 sequence (Q9NSD7 whole entry): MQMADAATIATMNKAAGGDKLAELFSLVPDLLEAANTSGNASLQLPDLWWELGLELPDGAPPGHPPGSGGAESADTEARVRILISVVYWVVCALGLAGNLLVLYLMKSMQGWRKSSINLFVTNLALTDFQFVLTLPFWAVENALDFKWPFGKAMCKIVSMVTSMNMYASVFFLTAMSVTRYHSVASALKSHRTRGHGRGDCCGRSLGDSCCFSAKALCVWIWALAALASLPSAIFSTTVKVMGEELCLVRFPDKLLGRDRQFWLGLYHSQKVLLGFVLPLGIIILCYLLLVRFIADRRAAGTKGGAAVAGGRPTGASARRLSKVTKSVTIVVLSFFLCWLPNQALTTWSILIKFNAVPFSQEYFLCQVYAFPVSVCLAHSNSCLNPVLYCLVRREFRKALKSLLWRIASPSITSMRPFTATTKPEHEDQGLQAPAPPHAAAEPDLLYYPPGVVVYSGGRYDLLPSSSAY
SMILES,pKi (human RXFP4),pEC50 (RXFP4 W279A),"Emax (RXFP4 W279A; HEK293T, mean ± S.E.M.) [% WT]",response (RXFP4 L118A),"pEC50 (RXFP4 V122A; 1.5 μM forskolin, n = 3)",Emax (RXFP4 V122A) [% WT],"pEC50 (RXFP4 V122S; 1.5 μM forskolin, n = 3)",Emax (RXFP4 V122S) [% WT],response (RXFP3 WT),"Ki (human RXFP4; stably-transfected CHO-K1, 5 nM Eu-R3/I5, mean ± S.E.M., n = 3, read-out: pKi (converted)) [nM]",decrease of potency vs WT (RXFP4 T121A) [fold],"pEC50 (RXFP4 T121A; 1.5 μM forskolin, mean ± S.E.M., n = 3 or 4, N.A., not active)",Emax (RXFP4 T121A; mean ± S.E.M.) [% WT],decrease of potency vs WT (RXFP4 R208A) [fold],"pEC50 (RXFP4 R208A; 1.5 μM forskolin, mean ± S.E.M., n = 3, N.A., not active)",Emax (RXFP4 R208A; mean ± S.E.M.) [% WT]
"CC[C@H](C)[C@@H]1NC(=O)[C@H](Cc2ccc(O)cc2)NC(=O)[C@H]([C@@H](C)CC)NC(=O)[C@H](C(C)C)NC(=O)[C@H]([C@@H](C)O)NC(=O)[C@H](CCCNC(=N)N)NC(=O)[C@H]([C@@H](C)CC)NC(=O)[C@H](Cc2ccc(O)cc2)NC(=O)[C@H](CCC(=O)O)NC(=O)[C@H](CC(C)C)NC(=O)CNC(=O)[C@@H](NC(=O)[C@H](CC(C)C)NC(=O)[C@H](CCCNC(=N)N)NC(=O)[C@@H](NC(=O)[C@H](CO)NC(=O)[C@H](CCC(=O)O)NC(=O)[C@@H](N)CCCCN)C(C)C)CSSC[C@@H]2NC(=O)[C@@H](NC(=O)[C@H](CC(C)C)NC(=O)[C@@H](NC(=O)[C@H](CCC(N)=O)NC(=O)[C@H](CC(C)C)NC(=O)[C@H](CC(=O)O)NC(=O)[C@@H](N)CCC(N)=O)[C@@H](C)O)CSSC[C@H](NC(=O)CNC(=O)[C@H](CC(=O)O)NC(=O)[C@H]([C@@H](C)O)NC2=O)C(=O)N[C@@H](CO)C(=O)N[C@@H](CCSC)C(=O)N[C@@H]([C@@H](C)O)C(=O)N[C@@H](CC(=O)O)C(=O)N[C@@H](CC(C)C)C(=O)N[C@@H](CO)C(=O)N[C@@H](C)C(=O)N[C@@H](CC(C)C)C(=O)N[C@H](C(=O)O)CSSC[C@@H](C(=O)N[C@@H](C)C(=O)N[C@@H](CO)C(=O)N[C@@H](CO)C(=O)N[C@@H](CCCNC(=N)N)C(=O)N[C@@H](Cc2c[nH]c3ccccc23)C(=O)O)NC1=O [INSL5, insulin-like peptide 5]",8.19,8.73,43.30 ± 3.29,inactive,8.44,33.20 ± 3.27,8.99,45.95 ± 4.97,inactive,–,–,–,–,–,–,–
"CCOc1cc2c(cc1OC)CCN(C(=O)N1CCOCC1)[C@H]2CCc1c[nH]c2ccc(OC)cc12 [DC591053, (S)-(7-ethoxy-6-methoxy-1-(2-(5-methoxy-1H-indol-3-yl)ethyl)−3,4-dihydroisoquinolin-2(1H)-yl)(morpholino)methanone]",–,–,–,–,–,–,–,–,–,112,20.9,6.14,31.53 ± 7.09,7.6,6.58,52.09 ± 4.26
